Assay results reported in ChEMBL document CHEMBL5055656, “Synthesis of novel indole-thiazolidinone hybrid structures as promising scaffold with anticancer potential” (Bioorg Med Chem, 2021).
Active and inactive are the calls of the source. No cut-off for these calls is given here.

What was measured:
[1] = tested on: HeLa; assay: Cytotoxicity against human HeLa cells assessed as cell growth inhibition measured after 72 hrs by MTT assay; type: functional
[2] = tested on: A549; assay: Cytotoxicity against human A549 cells assessed as cell growth inhibition measured after 72 hrs by MTT assay; type: functional
[3] = tested on: WM793; assay: Cytotoxicity against human WM793 cells assessed as cell growth inhibition measured after 72 hrs by MTT assay; type: functional
[4] = Cytotoxicity against human HaCaT cells assessed as cell growth inhibition measured after 72 hrs by MTT assay; type: cell-based
[5] = tested on: HepG2; assay: Cytotoxicity against human HepG2 cells assessed as cell growth inhibition measured after 48 hrs by MTT assay; type: functional
[6] = tested on: HepG2; assay: Cytotoxicity against human HepG2 cells assessed as cell growth inhibition measured after 48 hrs by neutral red uptake assay; type: functional
[7] = tested on: HepG2; assay: Cytotoxicity against human HepG2 cells assessed as cell growth inhibition measured after 72 hrs by neutral red uptake assay; type: functional
[8] = tested on: HepG2; assay: Cytotoxicity against human HepG2 cells assessed as cell growth inhibition measured after 48 hrs by coomassie brilliant blue staining based total cellular protein assay; type: functional
[9] = tested on: HepG2; assay: Cytotoxicity against human HepG2 cells assessed as cell growth inhibition measured after 48 hrs by LDH assay; type: functional
[10] = (§1) Cytotoxicity against mouse BALB/3T3 cells assessed as cell growth inhibition measured after 48 hrs by MTT assay; type: cell-based; conditions: BALB/3T3 cells
[11] = tested on: BALB/3T3; assay: as §1; type: cell-based; conditions: balb/3t3, 48 h
[12] = (§2) Cytotoxicity against mouse BALB/3T3 cells assessed as cell growth inhibition measured after 48 hrs by neutral red uptake assay; type: cell-based; conditions: BALB/3T3 cells
[13] = tested on: BALB/3T3; assay: as §2; type: cell-based; conditions: balb/3t3, 48 h
[14] = (§3) Cytotoxicity against mouse BALB/3T3 cells assessed as cell growth inhibition measured after 48 hrs by LDH assay; type: cell-based; conditions: BALB/3T3 cells
[15] = tested on: BALB/3T3; assay: as §3; type: cell-based; conditions: balb/3t3, 48 h
[16] = (§4) Cytotoxicity against mouse BALB/3T3 cells assessed as cell growth inhibition measured after 72 hrs by LDH assay; type: cell-based; conditions: BALB/3T3 cells
[17] = tested on: BALB/3T3; assay: as §4; type: cell-based; conditions: balb/3t3, 72 h
[18] = tested on: HepG2; assay: Induction of apoptosis in human HepG2 cells assessed as activation of cleaved caspase 3 expression at 0.7 uM incubated for 24 hrs by Western blot analysis; type: functional, cell-based
[19] = tested on: HepG2; assay: Induction of apoptosis in human HepG2 cells assessed as activation of cleaved PARP1 expression at 0.7 uM incubated for 24 hrs by Western blot analysis; type: functional, cell-based
[20] = target: Mitogen-activated protein kinase; ERK1/ERK2 (Homo sapiens) (UniProt P27361+P28482); assay: Inhibition of ERK1/2 phosphorylation in human HepG2 cells at 45 uM after 24 hrs by Western blotting analysis; type: cell-based
[21] = tested on: HepG2; assay: Induction of apoptosis in human HepG2 cells assessed as increase in Bax expression at 45 uM after 24 hrs by Western blot analysis; type: functional, cell-based
[22] = tested on: HepG2; assay: Induction of apoptosis in human HepG2 cells assessed as increase in Cdk2 expression at 45 uM after 24 hrs by Western blot analysis; type: functional, cell-based
[23] = tested on: HepG2; assay: Induction of cell cycle arrest in human HepG2 cells assessed as effect on phospho-Chk2 expression at 45 uM measured after 24 hrs by Western blot analysis; type: functional, cell-based
[24] = tested on: HepG2; assay: Induction of cell cycle arrest in human HepG2 cells assessed as effect of phospho-Rb expression at 45 uM measured after 24 hrs by Western blot analysis; type: functional, cell-based
[25] = tested on: MCF7; assay: Induction of cell cycle arrest in human MCF7 cells assessed as decrease in phospho-Rb expression at 45 uM measured after 24 hrs by Western blot analysis; type: functional, cell-based
[26] = tested on: HCT-116; assay: Induction of DNA damage in human HCT-116 cells assessed as increase in tail length incubated at 0.7 uM measured after 24 hrs by alkaline Comet assay relative to control; type: functional
[27] = tested on: HCT-116; assay: Induction of DNA damage in human HCT-116 cells assessed as increase in olive tail moment incubated at 0.7 uM measured after 24 hrs by alkaline Comet assay; type: functional
[28] = tested on: HepG2; assay: Induction of DNA damage in human HepG2 cells assessed as increase in olive tail moment incubated at 0.7 uM measured after 24 hrs by alkaline Comet assay; type: functional
[29] = tested on: BALB/3T3; assay: Induction of DNA damage in mouse BALB/3T3 cells assessed as increase in tail length incubated at 55 uM measured after 24 hrs by alkaline Comet assay; type: cell-based; conditions: balb/3t3, 24 h
[30] = tested on: BALB/3T3; assay: Induction of DNA damage in mouse BALB/3T3 cells assessed as increase in olive tail moment incubated at 55 uM measured after 24 hrs by alkaline Comet assay; type: cell-based; conditions: balb/3t3, 24 h
[31] = tested on: Salmon testes DNA; assay: Displacement of methyl green from salmon sperm DNA at 10 uM measured after 2 hrs by fluorescence plate reader method relative to control; type: cell-based; conditions: Salmo salar, Spermatozoa
[32] = Selectivity index, ratio of GI50 for human HaCaT cells to GI50 for human HepG2 cells; type: toxicity; conditions: HaCaT cells versus HepG2 cells, read-out: RatioGI50
[33] = Selectivity index, ratio of GI50 for human HaCaT cells to GI50 for human HCT-116 cells; type: toxicity; conditions: HaCaT cells versus HCT-116 cells, read-out: RatioGI50
[34] = Selectivity index, ratio of GI50 for human HaCaT cells to GI50 for human THP-1 cells
[35] = Selectivity index, ratio of GI50 for mouse BALA/3T3 cells to GI50 for human HepG2 cells; type: toxicity; conditions: BALA/3T3 cells versus HepG2 cells, read-out: RatioGI50
[36] = Selectivity index, ratio of GI50 for mouse BALA/3T3 cells to GI50 for human MCF7 cells; type: toxicity; conditions: BALA/3T3 cells versus MCF7 cells, read-out: RatioGI50
[37] = Selectivity index, ratio of GI50 for mouse BALA/3T3 cells to GI50 for human HCT-116 cells; type: toxicity; conditions: BALA/3T3 cells versus HCT-116 cells, read-out: RatioGI50
[38] = Selectivity index, ratio of GI50 for mouse BALA/3T3 cells to GI50 for human WM793 cells
[39] = Selectivity index, ratio of GI50 for mouse BALA/3T3 cells to GI50 for human HepG2 cells measured after 24 hrs by coomassie brilliant blue staining based total cellular protein assay; type: toxicity; conditions: BALA/3T3 cells versus HepG2 cells, read-out: Selectivity Index
[40] = Selectivity index, ratio of GI50 for mouse BALA/3T3 cells to GI50 for human HepG2 cells measured after 48 hrs by coomassie brilliant blue staining based total cellular protein assay; type: toxicity; conditions: BALA/3T3 cells versus HepG2 cells, read-out: Selectivity Index
[41] = Selectivity index, ratio of GI50 for mouse BALA/3T3 cells to GI50 for human HepG2 cells measured after 24 hrs by LDH assay; type: toxicity; conditions: BALA/3T3 cells versus HepG2 cells, read-out: Selectivity Index
[42] = Selectivity index, ratio of GI50 for mouse BALA/3T3 cells to GI50 for human HepG2 cells measured after 72 hrs by LDH assay; type: toxicity; conditions: BALA/3T3 cells versus HepG2 cells, read-out: Selectivity Index

Mitogen-activated protein kinase; ERK1/ERK2 (Homo sapiens), sequence (P27361 whole entry, looked up): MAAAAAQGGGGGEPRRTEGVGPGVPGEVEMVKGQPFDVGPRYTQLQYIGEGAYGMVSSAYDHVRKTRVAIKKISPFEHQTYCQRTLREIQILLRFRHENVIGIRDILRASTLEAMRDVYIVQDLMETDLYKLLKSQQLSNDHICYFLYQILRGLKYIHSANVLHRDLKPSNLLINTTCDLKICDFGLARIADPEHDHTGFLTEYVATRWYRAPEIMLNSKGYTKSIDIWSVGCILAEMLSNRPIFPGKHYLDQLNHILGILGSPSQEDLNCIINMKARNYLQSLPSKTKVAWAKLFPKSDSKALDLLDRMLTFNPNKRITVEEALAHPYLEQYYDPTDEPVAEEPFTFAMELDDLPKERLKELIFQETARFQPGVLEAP
Mitogen-activated protein kinase; ERK1/ERK2 (Homo sapiens), sequence (P28482 whole entry, looked up): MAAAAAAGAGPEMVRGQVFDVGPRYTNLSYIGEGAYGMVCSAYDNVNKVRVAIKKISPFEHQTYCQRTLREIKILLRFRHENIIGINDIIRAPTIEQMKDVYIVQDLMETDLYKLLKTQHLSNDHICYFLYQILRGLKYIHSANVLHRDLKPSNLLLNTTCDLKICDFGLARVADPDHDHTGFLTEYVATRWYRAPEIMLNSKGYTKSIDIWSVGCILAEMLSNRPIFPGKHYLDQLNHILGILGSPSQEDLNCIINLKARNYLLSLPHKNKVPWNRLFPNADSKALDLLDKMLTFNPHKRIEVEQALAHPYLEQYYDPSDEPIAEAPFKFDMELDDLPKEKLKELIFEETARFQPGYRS

- inhibition [20]: inactive
- Activity [31]: 5.4%
Structure (SMILES): COC(=O)c1[nH]c2ccc(F)cc2c1/C=C1\SC(=S)NC1=O
- GI50 [1]: 49.3 µM
- GI50 [2]: 9.7 µM
- GI50 [3]: 80.4 µM
- GI50 at 72 h [4]: 98.3 µM
- GI20 [5]: 0.3 µM
- GI80 [5]: 79.4 µM
- GI50 ([5]; Homo sapiens, HepG2): 16.3 µM
- GI20 [6]: 0.06 µM
- GI80 [6]: 73.5 µM
- GI50 ([6]; Homo sapiens, HepG2): 24.5 µM
- GI20 [7]: <0.01 µM
- GI80 [7]: 59.6 µM
- GI50 ([7]; Homo sapiens, HepG2): 7.5 µM
- GI20 [8]: 1.6 µM
- GI80 [8]: >100 µM
- GI50 ([8]; Homo sapiens, HepG2): 63.9 µM
- GI20 [9]: <0.01 µM
- GI80 [9]: 16.2 µM
- GI50 ([9]; Homo sapiens, HepG2): 0.06 µM
- GI50 at 48 h [10]: 25 µM
- GI20 [11]: 0.8 µM
- GI80 [11]: 84.8 µM
- GI50 at 48 h [12]: > 100 µM
- GI20 [13]: 2.4 µM
- GI80 [13]: > 100 µM
- GI50 at 48 h [14]: 89.7 µM
- GI20 [15]: 16.4 µM
- GI80 [15]: > 100 µM
- GI50 at 72 h [16]: 62.8 µM
- GI20 [17]: 2.9 µM
- GI80 [17]: > 100 µM
- Activity [18]: Active
- Activity [19]: Active
- Activity [21]: Active
- Activity [22]: Active
- Activity [23]: inactive
- Activity [24]: inactive
- Activity [25]: Active
- Activity [26]: 16.1%
- Activity [27]: 3.1
- Activity [28]: 13.2
- Activity [29]: 8.4%
- Activity [30]: 3.5
- selectivity ratio [32]: 5.75
- selectivity ratio [33]: 86.9
- RatioGI50 [34]: 1.11
- selectivity ratio [35]: 5.75
- selectivity ratio [36]: 99.4
- selectivity ratio [37]: 86.9
- RatioGI50 [38]: 0.87
- selectivity ratio at 24 h [39]: 1
- selectivity ratio at 48 h [40]: 2
- selectivity ratio at 24 h [41]: 323
- selectivity ratio at 72 h [42]: 1570
